The values that follow come from patent publication US11702417B2, “Compounds for improving mRNA splicing” (The General Hospital Corporation, priority 2015, dated 2023).

In general, melting point refers to the temperature of the solid-liquid transition. One may read the Emax as the greatest response seen or fitted, relative to the assay's reference.

The structures appear in SMILES notation.

Data set [1] has as its system FD (familial dysautomonia) IKBKAP minigene, exon 20 inclusion, in HEK293T cells. Description: Primary splicing assay (FD IKBKAP minigene, Firefly/Renilla luciferase reporter in HEK293T). The data set is classed as cell-based, human. Particulars: Homo sapiens, HEK-293T, Firefly/Renilla ratio, 24 hours of treatment. Background: A reporter such as luciferase makes a cellular process visible.

Data set [2] has as its system IKBKAP splicing (exon 20 inclusion) in FD fibroblasts GM04663. Description: Secondary assay: IKBKAP splicing analysis by RT-PCR in FD fibroblasts GM04663. The data set is classed as cell-based. Particulars: Homo sapiens, FD fibroblasts GM04663, 24 hours of treatment, read-out: % exon Inclusion Normalized.
Data set [3] in a line: In vivo FD mouse model: presence of compound in plasma and brain. Particulars: oral gavage eight days, 1 hour after last dose. How it is done: Compound (100) was administered by oral gavage for eight days at 60 mg/kg/day, 30 mg/kg/day and 10 mg/kg/day to the mouse transgenic familial dysautonomia (FD) model. Every dosing group and the control group (vehicle) consisted of 6 mice. The mice were given food and water ad libitum, and changes in body weights were monitored on a daily basis. On the eighth day the mice were dosed for the last time and after 1 hour the mice were sacrificed and dissected. Plasma, liver, kidney, heart and brain were collected.

The next data set has as its system IKBKAP exon 20 inclusion. Put plainly: In vivo familial dysautonomia mouse model: splicing analysis in tissues. Particulars: 400 mg/kg/day. As for the experimental part:
[…] Every dosing group and the control group (vehicle) consisted of 6 mice. The mice were given food and water ad libitum, and changes in body weights were monitored on a daily basis. On the eighth day the mice were dosed for the last time and after 1 hour the mice were sacrificed and dissected. Plasma, liver, kidney, heart and brain were collected.
The following solutions were prepared daily: Compound (230) in 10% DMA/45% PEG 300/12% EtOH/33% sterile water; and Compound (270) in 10% DMA/45% PEG 300/12% EtOH/33% sterile water.
[…] Six transgenic mice were fed daily with 10% DMA/45% PEG 300/12% EtOH/33% sterile water solution for the same duration. The mice were given food and water ad libitum, and changes in body weights were monitored on a daily basis. On the eighth day the mice were dosed for the last time and after 1 hour were sacrificed and dissected. Plasma, lungs, muscle, liver, heart, brain, kidney, sciatic nerve, and trigeminal nerve were collected. Splicing was evaluating by RT-PCT and IKAP protein was evaluated using Western Blotting.

The test system of a further data set is IKAP protein. Put plainly: In vivo FD mouse model: IKAP protein in liver by western blot. Particulars: 400 mg/kg/day. How it is done: Six transgenic mice were fed daily with 10% DMA/45% PEG 300/12% EtOH/33% sterile water solution for the same duration. The mice were given food and water ad libitum, and changes in body weights were monitored on a daily basis. On the eighth day the mice were dosed for the last time and after 1 hour were sacrificed and dissected. Plasma, lungs, muscle, liver, heart, brain, kidney, sciatic nerve, and trigeminal nerve were collected. Splicing was evaluating by RT-PCT and IKAP protein was evaluated using Western Blotting. Protein extracts were obtained by homogenizing liver or cell pellets in RIPA buffer (Tris-HCl 50 mM, pH 7.4; NaCl 150 mM; NP-40 1%; Sodium deoxycholate 0.5%; SDS 0.1%) containing protease inhibitor cocktail (Sigma), DTT (100 μM) and PMSF (100 μM). Insoluble debris were discarded after centrifugation and protein concentration was determined using Pierce® […] BCA Protein Assay Kit (Thermo Scientific). 50 μg of protein was separated on NuPage 4-12% Bis-Tris Gel (Invitrogen) and transferred into nitrocellulose membrane (Thermo Scientific). […]

The next data set deals with IKBKAP splicing. Particulars: mice, oral, 400 mg/kg/day for 7 days; cited from earlier work.
Data set [4] has as its system normal IKBKAP mRNA in peripheral blood. Particulars: human patients and carriers of familial dysautonomia, preliminary testing; cited from earlier work.

Take `FCCn1ncc2c(NCc3ccco3)nc(Cl)nc21` [Example 12, 6-Chloro-1-(2-fluoroethyl)-N-(furan-2-ylmethyl)-1H-pyrazolo[3,4-d]pyrimidin-4-amine]: the melting point lay in the range of 125 to 128 °C.
Turning to `Clc1nc(NCc2ccncc2)c2cc[nH]c2n1` [(100)], the EC (maximum kinetin efficacy) in data set [1] (HEK293T, read-out: ECk (compound concentration at which the maximum kinetin efficacy (200 μM) is reached)) turned out to be 2.18 µM. In addition, the Emax in data set [1] (max efficacy in Primary Assay, kinetin and DMSO as positive and negative controls, read-out: Emax (%)) was determined as 235%. In data set [2] (0.08 μM), the activation at 0.08 µM was found to be 22.6%. Besides, in data set [2] (0.8 μM), the activation at 0.8 µM came out at 62.1%. In data set [3], the “presence of compound in brain” value is given as “evident in the brain” and the “presence of compound in plasma” value is on record as “presence of (100) in the plasma”.
On to `c1coc(CNc2ncnc3nc[nH]c23)c1` [kinetin, N^6-furfuryladenine, reference compound], for which the activation at 200 µM in data set [2] (200 μM (kinetin control)) was found to be 100%. The splicing in kidney result with IKBKAP exon 20 inclusion is given as “no significant changes in splicing”. For the same compound, in the data set with IKBKAP exon 20 inclusion (8 days of treatment), the splicing in brain entry is reported as “no significant change”. Besides, the “level of the IKAP protein in liver” value with IKAP protein is listed as “no significant changes”. Also, the “IKBKAP splicing in vivo in certain tissues, including the brain” value with IKBKAP splicing is “improve IKBKAP splicing in vivo”. In addition, the “normal IKBKAP mRNA in peripheral blood” value in data set [4] is on record as “increased normal IKBKAP mRNA in peripheral blood”.
